Data: ChEMBL document CHEMBL1177750, “Cellular localization of clathridimine, an antimicrobial 2-aminoimidazole alkaloid produced by the Mediterranean calcareous sponge Clathrina clathrus” (2010)

How the values were obtained:
Type in all cases: functional
Candida albicans = assay: Antimicrobial activity against Candida albicans ATCC 66029 at 100 ug/well after 24 hrs at 30 degC by agar diffusion assay; details: ATCC 66029, 24 h, read-out: DIZ
Staphylococcus aureus = assay: Antimicrobial activity against Staphylococcus aureus ATCC 6538 at 100 ug/well after 24 hrs at 37 degC by agar diffusion assay; details: ATCC 6538, 24 h, read-out: DIZ
Escherichia coli = assay: Antimicrobial activity against Escherichia coli ATCC 8739 at 100 ug/well after 24 hrs at 37 degC by agar diffusion assay; details: ATCC 8739, 24 h, read-out: DIZ

CCC(C)n1ncn(-c2ccc(N3CCN(c4ccc(OCC5COC(Cn6cncn6)(c6ccc(Cl)cc6Cl)O5)cc4)CC3)cc2)c1=O (centres undefined) [ITRACONAZOLE]
zone of inhibition at 100 µg/disc (Candida albicans): 21 mm

NC[C@H]1O[C@H](O[C@H]2[C@H](O)[C@@H](O[C@H]3O[C@H](CO)[C@@H](O)[C@H](N)[C@H]3O)[C@H](N)C[C@@H]2N)[C@H](O)[C@@H](O)[C@@H]1O [KANAMYCIN]
zone of inhibition at 100 µg/disc (Staphylococcus aureus): 37 mm | zone of inhibition at 100 µg/disc (Escherichia coli): 38 mm

CN1C(=O)N=C(Nc2nc(Cc3ccc4c(c3)OCO4)cn2C)C1=O [CLATHRIDINE]
zone of inhibition at 100 µg/disc (Candida albicans): 18 mm | zone of inhibition at 100 µg/disc (Staphylococcus aureus): 0 mm | zone of inhibition at 100 µg/disc (Escherichia coli): 0 mm

CN1C(=N)N=C(Nc2nc(Cc3ccc4c(c3)OCO4)cn2C)C1=O [CLATHRIDIMINE]
zone of inhibition at 100 µg/disc (Candida albicans): 24 mm | zone of inhibition at 100 µg/disc (Staphylococcus aureus): 0 mm | zone of inhibition at 100 µg/disc (Escherichia coli): 15 mm
